Counter-ions that a name gives are not always drawn.

Test [1] deals with eNOS (Homo sapiens, UniProt P29474). Put plainly: Cell-free eNOS activity assay reconstituted from purified components. It counts as biochemical. Particulars: 1, 10, 100 μM, 90 minutes at 37° C., nitrite by DAN fluorescence. As to the method: Also tested was the effect of BH4 analogs compared to free BH4 on stimulation of eNOS activity in a cell-free assay system reconstituted from purified components. 90 μL of reaction mixture (25 mM Tris-HCL, pH7.4, 1 μM FAD, 1 μM FMN, 100 μM L-Arginine, 2.5 mM CaCl2, 1 mM NADPH, 0.04 mg/ml Calmodulin) was mixed with 5 μl of eNOS (15 units/ml) and 5 μl of BH4 or BH4 analogs (1, 10, 100 μM), followed by incubation in a 37° C. water bath for 90 minutes. Then 100 μl of water and 20 μl of the nitrite fluorescent probe DAN (2,3-diaminonaphthalene, 316 μM) were added to each reaction and incubated at room temperature for 10 minutes. The dye DAN reacts with nitrite to yield the fluorescent product naphthotriazole. The reaction was then stopped by adding 10 μl of NaOH (2.8 M), and the fluorescence of the samples was read using excitation frequency 375 nm and emission frequency 415 nm.

Test [2] has as its system human umbilical vein endothelial cells (HUVEC). Put plainly: Nitric oxide production (nitrite+nitrate) in NAS-treated HUVEC. It counts as cell-based. The conditions noted are these: for NO production (nitrite+nitrate): 5-22 hours treatment; for effect (response) relative to that of free BH4: 5 to 22 hours exposure. Here is the method:
Cultured human umbilical vein endothelial cells (HUVEC) were pretreated with 3 mM N-acetylserotonin (NAS), an inhibitor of the enzyme sepiapterin reductase. Inhibition of this pathway typically results in loss of endogenous BH4, depressing the endogenous eNOS activity far below normal and provides an assay to test for restoration of eNOS activity.
Thus, subconfluent HUVECs were seeded in a 24-well plate and grown overnight in EGM2 medium (full growth medium). The next morning, fresh medium was added to the cells (300 μL/well), 3 mM N-acetylserotonin (NAS), an inhibitor of the enzyme sepiapterin reductase (a member of the synthesis pathway for endogenous BH4) was added to the cells to decrease the endogenous BH4 levels. After an incubation of 1.5 hours, 50, 100, or […] BH4 or compound of Example 5, Example 6, Example 7, or Example 9 were added to the cells. The cells were allowed to react with the BH4 or the compound of Example 5, Example 7, or Example 9 for 5-22 hours. The production of NO was then measured as changes in total (nitrite+nitrate) by the Griess reaction subsequent to nitrate reductase treatment. 90 μL of reaction mixture (25 mM Tris-HCL, pH7.4, 1 μM FAD, 1 μM FMN, 100 μM L-Arginin 2.5 mM CaCl2, 1 mM NADPH, 0.04 mg/ml Calmodulin) was mixed with 5 μl of eNOS (15 units/ml) and 5 μl of BH4 or BH4 analogs (1, 10, 100 μM), followed by incubation in a 37° C. water bath for 90 minutes. Then 100 μl of water and 20 μl of the nitrite fluorescent probe DAN (2,3-diaminonaphthalene, 316 μM) were added to each reaction and incubated at room temperature for 10 minutes. The dye DAN reacts with nitrite to yield the fluorescent product naphthotriazole. The reaction was then stopped by adding 10 μl of NaOH (2.8 M), and the fluorescence of the samples was read using excitation frequency 375 nm and emission frequency 415 nm. The percentage of nitrite+nitrate with BH4 or compound of Example 5, Example 7, or Example 9 is shown in FIG. 17 (after 5 hours); FIG. 18 (after 17 hours); and FIG. 19 (after 22 hours). The results for Example 6 are shown in FIG. 20 (after 5 hours) and FIG. 21 (after 20 hours).

Regarding `C[C@H](OC(=O)[C@@H](N)CCCCN)[C@H](O)[C@H]1CNc2nc(N)[nH]c(=O)c2N1` [Example 7, 2,6-Diamino-hexanoic acid 2-(2-amino-4-oxo-3,4,5,6,7,8-hexahydro-pteridin-6-yl)-2-hydroxy-1-methyl-ethyl ester tri-hydrochloride], the “potentiation of eNOS activity” value in test [1] was “slight effect on eNOS activity”. In test [2], the “NO production (nitrite+nitrate)” value is given as “increased NO production in a dose-dependent manner” and the “effect (response) relative to that of free BH4” value is “similar, if slightly reduced, effect”.
For the compound `CCC(C)[C@H](N)C(=O)O[C@@H](C)[C@H](O)[C@H]1CNc2nc(N)[nH]c(=O)c2N1` (stereo in doubt) [Example 6, 2-Amino-3-methyl-pentanoic acid 2-(2-amino-4-oxo-3,4,5,6,7,8-hexahydro-pteridin-6-yl)-2-hydroxy-1-methyl-ethyl ester], in test [2], the “NO production (nitrite+nitrate)” value is given as “increased NO production in a dose-dependent manner” and the “effect (response) relative to that of free BH4” value is on record as “similar, if slightly reduced, effect”.
In the case of `C[C@H](OC(=O)[C@@H]1CCCN1)[C@H](O)[C@H]1CNc2nc(N)[nH]c(=O)c2N1` [Example 9, Pyrrolidine-2-carboxylic acid 2-(2-amino-4-oxo-3,4,5,6,7,8-hexahydro-pteridin-6-yl)-2-hydroxy-1-methyl-ethyl ester dihydrochloride], the “potentiation of eNOS activity” value in test [1] is reported as “slight effect on eNOS activity”. In test [2], the “NO production (nitrite+nitrate)” value is on record as “increased NO production in a dose-dependent manner” and the “effect (response) relative to that of free BH4” value is recorded as “similar, if slightly reduced, effect”.
With `C[C@@H](O)[C@@H](O)[C@H]1CNc2nc(N)[nH]c(=O)c2N1` [Example 6S-BH4, reference compound], the “potentiation of eNOS activity” value in test [1] is “did not significantly potentiate eNOS activity”.

For the origin of these results see patent publication US7601717B2, “Pterin analogs” (BioMarin Pharmaceutical Inc., priority 2008, dated 2009).
